Peptide text beside a SMILES is read from it.
Biological target: T1, H2-K^d (Mus musculus, UniProt P01902)
T1 construct: expressed in transfected cells; host or cells: RMA/S lymphoma cell line expressing H2-K^d
T1 sequence (P01902 22-368): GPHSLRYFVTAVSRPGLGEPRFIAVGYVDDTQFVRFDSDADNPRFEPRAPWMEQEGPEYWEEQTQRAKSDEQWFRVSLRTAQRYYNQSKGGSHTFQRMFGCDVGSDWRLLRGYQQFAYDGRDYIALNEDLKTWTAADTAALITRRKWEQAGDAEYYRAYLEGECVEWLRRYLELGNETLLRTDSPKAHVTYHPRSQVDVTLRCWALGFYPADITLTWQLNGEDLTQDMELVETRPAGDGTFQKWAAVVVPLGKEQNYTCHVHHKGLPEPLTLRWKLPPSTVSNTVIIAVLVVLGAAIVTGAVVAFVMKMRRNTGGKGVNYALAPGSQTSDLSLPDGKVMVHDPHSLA
T1 sequence (P01887 21-119 partner): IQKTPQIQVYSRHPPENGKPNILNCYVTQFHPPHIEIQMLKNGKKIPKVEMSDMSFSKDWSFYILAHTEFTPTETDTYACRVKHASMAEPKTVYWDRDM
Experiment: MHC binding assay (RMA/S cells expressing H2-K^d)
Set-up: species or system murine
Details: H2-K^d stabilization, read-out: apparent Kd
Protocol: RMA/S cells expressing H2-K^d were used to test MHC binding as described.
The affinity of SYQKSINNI for H2-K^d was determined using an RMA/S lymphoma cell line expressing H2-Kd as previously described.
Fig 4 The PyMDH epitope binds to murine H2-K^d. RMA/S cells expressing H2-K^d were incubated with peptides for PyCSP (squares), PyMDH (circles) or non-specific peptide. PyCSP and PyMDH peptides stabilized H2-K^d, indicative of specific MHC binding. Error bars indicate the 95% confidence interval.

Structure (SMILES) | Kd [µM]
CC[C@H](C)[C@H](NC(=O)[C@H](CCC(N)=O)NC(=O)[C@H](CCC(=O)O)NC(=O)[C@H](C)NC(=O)[C@H](CO)NC(=O)[C@@H]1CCCN1C(=O)[C@@H](NC(=O)[C@H](Cc1ccc(O)cc1)NC(=O)[C@@H](N)CO)C(C)C)C(=O)O [PyCSP peptide] (H-SYVPSAEQI-OH) | 0.0096
CC[C@H](C)[C@H](NC(=O)[C@H](CC(N)=O)NC(=O)[C@H](CC(N)=O)NC(=O)[C@@H](NC(=O)[C@H](CO)NC(=O)[C@H](CCCCN)NC(=O)[C@H](CCC(N)=O)NC(=O)[C@H](Cc1ccc(O)cc1)NC(=O)[C@@H](N)CO)[C@@H](C)CC)C(=O)O [PyMDH peptide] (H-SYQKSINNI-OH) | 0.0116
